Test results taken from paper PMC5840523, “Assessment of a pretomanid analogue library for African trypanosomiasis: Hit-to-lead studies on 6-substituted 2-nitro-6,7-dihydro-5H-imidazo[2,1-b][1,3]thiazine 8-oxides” (Bioorganic & Medicinal Chemistry Letters, 2018).
In brackets after ≈: the same amount, converted by molar mass. Read-outs that look alike come from different tables or passages of the source.

Tests used:
T. b. brucei 427 [1] = assay: T. b. brucei growth inhibition (University of Antwerp); type: cell-based, Trypanosoma brucei brucei; conditions: for IC50: T. b. brucei 427, mean of 2 to 5 determinations, read-out: IC50 T. b. bruc
T. b. rhodesiense = T. b. rhodesiense growth inhibition (University of Antwerp); type: cell-based, Trypanosoma brucei rhodesiense; conditions: mean of 2 to 5 determinations, read-out: IC50 T. b. rhod
Trypanosoma cruzi = assay: T. cruzi growth inhibition (University of Antwerp); type: cell-based; conditions: mean of 2 to 5 determinations
Leishmania infantum = assay: L. infantum growth inhibition (University of Antwerp); type: cell-based; conditions: mean of 2 to 5 determinations
[2] = test system: human lung fibroblasts (MRC-5 cells); assay: Cytotoxicity toward MRC-5 cells (University of Antwerp); type: cell-based
T. b. brucei 427 [3] = assay: T. b. brucei 427 growth inhibition (Scynexis); type: cell-based, Trypanosoma brucei brucei; conditions: for Selectivity Index: L929 vs T. b. brucei; for IC50: Trypanosoma brucei, growth inhibition of T. b. brucei 427, mean ± SD
L929 mouse fibroblasts = assay: Cytotoxicity toward L929 mouse fibroblasts (Scynexis); type: cell-based
Mouse liver S9 stability = type: in vitro ADME; conditions: CD-1, mouse, mouse liver S9 subcellular fraction, half-life in mouse liver S9 fraction; read-out: Mouse S9 t1/2
[4] = Kinetic aqueous solubility in pH 7.4 PBS; type: physicochemical
Excerpt: Table 1 Inhibitory potency, metabolic stability, aqueous solubility, and MDCK-MDR1 cell permeability for 15 screening hits against T. b. brucei. | column: Solubility ^c / (µg/mL)

in vitro = conditions: dog, MDCK-MDR1, Permeability Papp
T. b. brucei (EATRO 110) = assay: Acute (stage 1) HAT infection mouse model; type: in vivo, T. b. brucei; female Swiss Webster mice; conditions: 2 mg/kg i.p. once daily for 4 days
Protocol: Therefore, 24 was examined in a stage 1 HAT mouse model.[14] Briefly, dosing was orally once daily for four days, starting 24 h postinfection, and parasitemia was assessed weekly via tail vein blood smears (see the Supporting Information). Excellent activity was observed (Table 4), with 24 providing complete cures (i.e. parasite free blood smears after >30 days) to all mice at doses as low as 5 mg/kg, similar to the control drug pentamidine (given i.p. at 2 mg/kg), whereas the vehicle only mice died on day 7. […] Here, oral dosing of 24 (at 12.5 to 50 mg/kg once daily for seven days from day 21 postinfection) led to significant increases in survival times in comparison to untreated controls (66–70 days vs 31 days; Table 5), although cure rates were inadequate (0–20%). […]
Mouse Model f or Acu te HAT Inf ection. Compound 24 was tested for in vivo effi cac y against acute HAT infection caused b y T. b. brucei (EATRO 110 strain) at the Haskins Laboratories, Pace Universit y. […] Infected animals or th ose showing si gns of infectionwer e euthanized.Untreated infected contr ol animals died after 5-7 days; mice remaining parasite free for more than 30 da ys beyond the end of the tr eatment period w er e con sidered cur ed. […]

T. b. brucei (TREU 667) = assay: CNS (stage 2, chronic) HAT infection mouse model; type: in vivo, T. b. brucei; female Swiss Webster mice
Protocol: Therefore, 24 was examined in a stage 1 HAT mouse model.[14] Briefly, dosing was orally once daily for four days, starting 24 h postinfection, and parasitemia was assessed weekly via tail vein blood smears (see the Supporting Information). Excellent activity was observed (Table 4), with 24 providing complete cures (i.e. parasite free blood smears after >30 days) to all mice at doses as low as 5 mg/kg, similar to the control drug pentamidine (given i.p. at 2 mg/kg), whereas the vehicle only mice died on day 7. […]
Mouse Model for Chronic HAT Inf ection. Compound 24 was tested for in vi vo efficac y against chronic HAT infection caused b y T. b. brucei (TREU 667 strain) at the Haskin s Laboratories, Pace Universit y. […]
suspension formulation (0.8% CMC, 0.1% SDS in water) to groups of 8 or 10infected f emal e Swiss Webster mice, starting 21 d postinfection, according to a report ed method. 5 Animals remaining parasite free for more than 180 da ys beyond the end of the treatment period were […]

[5] = cytotoxicity toward human lung fibroblasts
[6] = Trypanosoma brucei, RHODESIENSE
[7] = Homo sapiens, MRC5, cytotoxicity toward human lung fibroblasts
[8] = 10 mg/kg single i.p. dose on day 4
[9] = 10 mg/kg single i.p. dose on day 21

Molecule: O=[N+]([O-])c1cn2c(n1)[S+]([O-])CC(OCc1ccc(-c3ccc(OC(F)(F)F)cc3)cn1)C2 (stereo not drawn) [Compound 39, 2-Nitro-6-({5-[4-(trifluoromethoxy)phenyl]pyridin-2-yl}methoxy)-6,7-dihydro-5H-imidazo[2,1-b][1,3]thiazine 8-oxide]
- IC50 (T. b. brucei 427 [1]): 0.075 µM
- IC50 (T. b. rhodesiense): 0.1 µM
- IC50 (Trypanosoma cruzi): 0.14 µM
- IC50 (Leishmania infantum): 2 µM
- IC50 [2, 5]: 54 µM

Molecule: O=[N+]([O-])c1cn2c(n1)[S+]([O-])CC(Oc1ccc(C(F)(F)F)cn1)C2 (stereo not drawn) [Compound 34]
- potency relative to 12 against T. b. brucei (fold less potent) (T. b. brucei 427 [1]): 4- to 6 fold
- IC50 (T. b. brucei 427 [1]): 1.2 µM
- IC50 (T. b. rhodesiense): 0.51 µM
- IC50 (Trypanosoma cruzi): 4.1 µM
- IC50 (Leishmania infantum): 13 µM
- IC50 [2, 5]: > 64 µM

Molecule: O=[N+]([O-])c1cn2c(n1)SCC(Oc1ccc(OC(F)(F)F)cc1)C2 (stereo not drawn) [Compound 28]
- IC50 (T. b. brucei 427 [1]; Trypanosoma brucei): 40 µM
- IC50 (T. b. rhodesiense; [6]): 59 µM
- IC50 (Trypanosoma cruzi; Trypanosoma cruzi): 2.2 µM
- IC50 (Leishmania infantum; Leishmania infantum): 7 µM
- IC50 [2, 7]: 51 µM

Molecule: CC1(COCc2ccc(OCc3ccccc3)cc2)Cn2cc([N+](=O)[O-])nc2[S+]1[O-] (stereo not drawn) [Compound 11]
- Selectivity Index (T. b. brucei 427 [3]): >77
- IC50 (T. b. brucei 427 [3]): 0.13 ± 0.04 mg/L (≈ 0.304 µM)
- IC50 (L929 mouse fibroblasts): > 10 mg/L
- half-life (Mouse liver S9 stability): < 1.17 h
- solubility [4]: 1.3 µg/mL (≈ 3.04 µM)
- Papp at 1 h, 3 µM (in vitro): 651 nm/s

Molecule: CSc1ccc(OCc2ncc([N+](=O)[O-])n2C)cc1 [Compound 4, fexinidazole, reference compound]
- Papp at 1 h, 3 µM (in vitro): 732 nm/s

Molecule: CC1(COCc2ccc(OCc3ccccc3)cc2)Cn2cc([N+](=O)[O-])nc2S1 (stereo not drawn) [Compound 20]
- Selectivity Index (T. b. brucei 427 [3]): >4.5
- IC50 (T. b. brucei 427 [3]): 2.2 ± 0.7 mg/L (≈ 5.35 µM)
- IC50 (L929 mouse fibroblasts): > 10 mg/L
- solubility [4]: 1.2 µg/mL (≈ 2.92 µM)
- Papp at 1 h, 3 µM (in vitro): 465 nm/s

Molecule: O=[N+]([O-])c1cn2c(n1)SCC(OCc1ccc(-c3ccc(OC(F)(F)F)cc3)cn1)C2 (stereo not drawn) [Compound 32]
- IC50 (T. b. brucei 427 [1]; Trypanosoma brucei): 4.3 µM
- IC50 (T. b. rhodesiense; [6]): 2.1 µM
- IC50 (Trypanosoma cruzi; Trypanosoma cruzi): 1.4 µM
- IC50 (Leishmania infantum; Leishmania infantum): 7.5 µM
- IC50 [2, 7]: 21 µM

Molecule: O=[N+]([O-])c1cn2c(n1)OC[C@@H](Oc1cc(-c3ccc(C(F)(F)F)nc3)ccn1)C2 [Compound 22]
- Selectivity Index (T. b. brucei 427 [3]): >3.6
- IC50 (T. b. brucei 427 [3]): 2.8 ± 0.2 mg/L (≈ 6.87 µM)
- IC50 (L929 mouse fibroblasts): > 10 mg/L
- half-life (Mouse liver S9 stability): 2.43 h
- solubility [4]: 10 µg/mL (≈ 24.6 µM)
- Papp at 1 h, 3 µM (in vitro): 793 nm/s

Molecule: CN1CC(OCc2ccc(OCc3ccccc3)cc2)Cn2nc([N+](=O)[O-])cc21 (stereo not drawn) [Compound 23]
- Selectivity Index (T. b. brucei 427 [3]): >3.3
- IC50 (T. b. brucei 427 [3]): 3 ± 0.9 mg/L (≈ 7.61 µM)
- IC50 (L929 mouse fibroblasts): > 10 mg/L
- half-life (Mouse liver S9 stability): < 1.17 h
- solubility [4]: 2.4 µg/mL (≈ 6.08 µM)
- Papp at 1 h, 3 µM (in vitro): 363 nm/s

Molecule: O=[N+]([O-])c1cn2c(n1)SCC(OCc1ccc(OCc3ccccc3)cc1)C2 (stereo not drawn) [Compound 31]
- IC50 (T. b. brucei 427 [1]; Trypanosoma brucei): 1.4 µM
- IC50 (T. b. rhodesiense; [6]): 1.2 µM
- IC50 (Trypanosoma cruzi; Trypanosoma cruzi): 0.49 µM
- IC50 (Leishmania infantum; Leishmania infantum): 45 µM
- IC50 [2, 7]: > 64 µM

Molecule: N=C(N)c1ccc(OCCCCCOc2ccc(C(=N)N)cc2)cc1 [Pentamidine, pentamidine, reference compound]
- Cured (T. b. brucei (EATRO 110)): 100%
- Cured/Total (T. b. brucei (EATRO 110)): 3/3
- Mean survival (T. b. brucei (EATRO 110)): >30 days

Molecule: O=[N+]([O-])c1cn2c(n1)SCC(OCc1ccc(OC(F)(F)F)cc1)C2 (stereo not drawn) [Compound 30]
- IC50 (T. b. brucei 427 [1]; Trypanosoma brucei): 44 µM
- IC50 (T. b. rhodesiense; [6]): 36 µM
- IC50 (Trypanosoma cruzi; Trypanosoma cruzi): 1.1 µM
- IC50 (Leishmania infantum; Leishmania infantum): 55 µM
- IC50 [2, 7]: > 64 µM

Molecule: O=[N+]([O-])c1cn2c(n1)[S+]([O-])CC(Oc1ccc(C(F)(F)F)cn1)C2 (stereo not drawn) [Compound 37]
- IC50 (T. b. brucei 427 [1]): 17 µM
- IC50 (T. b. rhodesiense): 9.9 µM
- IC50 (Trypanosoma cruzi): 12 µM
- IC50 (Leishmania infantum): 41 µM
- IC50 [2, 5]: 30 µM

Molecule: O=[N+]([O-])c1cn2c(n1)S(=O)(=O)CC(Oc1ccc(OC(F)(F)F)cc1)C2 (stereo not drawn) [Compound 40]
- IC50 (T. b. brucei 427 [1]; Trypanosoma brucei): 15 µM
- IC50 (T. b. rhodesiense; [6]): 13 µM
- IC50 (Trypanosoma cruzi; Trypanosoma cruzi): 3.5 µM
- IC50 (Leishmania infantum; Leishmania infantum): 32 µM
- IC50 [2, 7]: > 64 µM

Molecule: O=[N+]([O-])c1cn2c(n1)[S+]([O-])CC(OCc1ccc(OC(F)(F)F)cc1)C2 (stereo not drawn) [Compound 38]
- IC50 (T. b. brucei 427 [1]): 5.6 µM
- IC50 (T. b. rhodesiense): 5.1 µM
- IC50 (Trypanosoma cruzi): 9.1 µM
- IC50 (Leishmania infantum): > 64 µM
- IC50 [2, 5]: > 64 µM

Molecule: O=[N+]([O-])c1cn2c(n1)S(=O)(=O)CC(Oc1ccc(C(F)(F)F)cn1)C2 (stereo not drawn) [Compound 41]
- IC50 (T. b. brucei 427 [1]; Trypanosoma brucei): 19 µM
- IC50 (T. b. rhodesiense; [6]): 11 µM
- IC50 (Trypanosoma cruzi; Trypanosoma cruzi): 2.6 µM
- IC50 (Leishmania infantum; Leishmania infantum): 30 µM
- IC50 [2, 7]: 46 µM

Molecule: COc1ccc(-c2ccc(O[C@@H]3COc4nc([N+](=O)[O-])cn4C3)nc2)cn1 [Compound 21]
- Selectivity Index (T. b. brucei 427 [3]): >3.7
- IC50 (T. b. brucei 427 [3]): 2.7 ± 0.5 mg/L (≈ 7.31 µM)
- IC50 (L929 mouse fibroblasts): > 10 mg/L
- half-life (Mouse liver S9 stability): 3.98 h
- solubility [4]: 18 µg/mL (≈ 48.7 µM)
- Papp at 1 h, 3 µM (in vitro): 769 nm/s

Molecule: O=[N+]([O-])c1cn2c(n1)SC(COCc1ccc(OCc3ccccc3)cc1)C2 (stereo not drawn) [Compound 15]
- Selectivity Index (T. b. brucei 427 [3]): >22
- IC50 (T. b. brucei 427 [3]): 0.46 ± 0.21 mg/L (≈ 1.16 µM)
- IC50 (L929 mouse fibroblasts): > 10 mg/L
- half-life (Mouse liver S9 stability): < 1.17 h
- solubility [4]: 1.2 µg/mL (≈ 3.02 µM)
- Papp at 1 h, 3 µM (in vitro): 583 nm/s

Molecule: Berenil [reference compound]
- Cured (T. b. brucei (TREU 667); [8]): 100%
- Cured/Total (T. b. brucei (TREU 667); [8]): 5/5
- Cured (T. b. brucei (TREU 667); [9]): 0%
- Cured/Total (T. b. brucei (TREU 667); [9]): 0/5
- Mean relapse time (T. b. brucei (TREU 667); [9]): 41 days

Molecule: O=[N+]([O-])c1cn2c(n1)SCC(Oc1ccc(C(F)(F)F)cn1)C2 (stereo not drawn) [Compound 29]
- IC50 (T. b. brucei 427 [1]; Trypanosoma brucei): > 64 µM
- IC50 (T. b. rhodesiense; [6]): > 64 µM
- IC50 (Trypanosoma cruzi; Trypanosoma cruzi): 5.3 µM
- IC50 (Leishmania infantum; Leishmania infantum): 10 µM
- IC50 [2, 7]: > 64 µM

Molecule: O=[N+]([O-])c1cn2c(n1)[S+]([O-])CC(Oc1ccc(OC(F)(F)F)cc1)C2 (stereo not drawn) [Compound 36]
- IC50 (T. b. brucei 427 [1]): 55 µM
- IC50 (T. b. rhodesiense): 27 µM
- IC50 (Trypanosoma cruzi): 7.7 µM
- IC50 (Leishmania infantum): > 64 µM
- IC50 [2, 5]: > 64 µM

Molecule: O=[N+]([O-])c1cn2c(n1)[S+]([O-])CC(Oc1ccc(OC(F)(F)F)cc1)C2 (stereo not drawn) [Compound 33]
- potency relative to 12 against T. b. brucei (fold less potent) (T. b. brucei 427 [1]): 4- to 6 fold
- IC50 (T. b. brucei 427 [1]): 1.6 µM
- IC50 (T. b. rhodesiense): 0.98 µM
- IC50 (Trypanosoma cruzi): 2.1 µM
- IC50 (Leishmania infantum): 7 µM
- IC50 [2, 5]: 23 µM
